Here are results for 50 molecules from patent US20240409609A1, “REVERSIBLE LYSINE COVALENT MODIFIERS OF EGFR AND USES THEREOF” (Terremoto Biosciences, Inc., priority 2021, published 2024).

In assay [1] the target is EGFR WT in Ba/F3 cells (Homo sapiens (Human), UniProt P00533). In words: Ba/F3 pEGFR assay (AlphaLISA p-EGFR Tyr1068). The assay is classed as cell-based. Particulars: 2 hrs treatment, media supplemented with EGF. The protocol:
Cellular activity was determined using the Ba/F3 system for studying oncogenic mutant kinases (Warmuth 2007). […] Transduced cells were maintained in RPMI 1640 with 10% FBS. EGFR WT transduced cells were grown in media supplemented with EGF. To assay cellular activity of inhibitors, cells were treated with inhibitor from 1000X DMSO stock dilutions and incubated for 2 hrs at 37° C. 5% CO2. Subsequently, p-EGFR (Tyr1068) was quantified using a commercial sandwich immunoassay (PerkinElmer AlphaLISA SureFire assay; ALSU-PEGFR) according to the manufacturer's instructions. […] Curr Opin Oncol 19, 55-60 (2007), which is incorporated herein in its entirety.
(In general: Bead proximity is the source of the signal in Alpha formats.)

Assay [2] deals with EGFR WT (Homo sapiens (Human), UniProt P00533). In words: EGFR biochemical assay (AssayQuant chelation-enhanced fluorescence). The conditions noted are these: 30 min preincubation, reaction time 360 min.
Chain of EGFR WT (P00533 668-1210): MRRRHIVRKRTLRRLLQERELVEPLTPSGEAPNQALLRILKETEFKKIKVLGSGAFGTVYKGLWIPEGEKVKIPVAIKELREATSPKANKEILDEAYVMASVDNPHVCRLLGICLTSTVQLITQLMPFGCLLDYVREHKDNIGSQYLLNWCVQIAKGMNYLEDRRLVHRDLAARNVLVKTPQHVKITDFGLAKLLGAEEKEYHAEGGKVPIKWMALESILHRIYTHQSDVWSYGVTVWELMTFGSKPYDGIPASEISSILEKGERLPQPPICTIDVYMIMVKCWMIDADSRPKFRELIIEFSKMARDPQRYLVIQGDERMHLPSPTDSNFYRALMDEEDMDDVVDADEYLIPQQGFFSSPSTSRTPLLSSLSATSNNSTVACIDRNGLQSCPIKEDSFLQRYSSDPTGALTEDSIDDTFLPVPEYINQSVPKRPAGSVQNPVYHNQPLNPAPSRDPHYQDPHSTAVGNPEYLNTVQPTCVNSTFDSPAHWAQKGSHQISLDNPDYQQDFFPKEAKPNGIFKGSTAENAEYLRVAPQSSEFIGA

Chain of EGFR WT in Ba/F3 cells (P00533 25-1210): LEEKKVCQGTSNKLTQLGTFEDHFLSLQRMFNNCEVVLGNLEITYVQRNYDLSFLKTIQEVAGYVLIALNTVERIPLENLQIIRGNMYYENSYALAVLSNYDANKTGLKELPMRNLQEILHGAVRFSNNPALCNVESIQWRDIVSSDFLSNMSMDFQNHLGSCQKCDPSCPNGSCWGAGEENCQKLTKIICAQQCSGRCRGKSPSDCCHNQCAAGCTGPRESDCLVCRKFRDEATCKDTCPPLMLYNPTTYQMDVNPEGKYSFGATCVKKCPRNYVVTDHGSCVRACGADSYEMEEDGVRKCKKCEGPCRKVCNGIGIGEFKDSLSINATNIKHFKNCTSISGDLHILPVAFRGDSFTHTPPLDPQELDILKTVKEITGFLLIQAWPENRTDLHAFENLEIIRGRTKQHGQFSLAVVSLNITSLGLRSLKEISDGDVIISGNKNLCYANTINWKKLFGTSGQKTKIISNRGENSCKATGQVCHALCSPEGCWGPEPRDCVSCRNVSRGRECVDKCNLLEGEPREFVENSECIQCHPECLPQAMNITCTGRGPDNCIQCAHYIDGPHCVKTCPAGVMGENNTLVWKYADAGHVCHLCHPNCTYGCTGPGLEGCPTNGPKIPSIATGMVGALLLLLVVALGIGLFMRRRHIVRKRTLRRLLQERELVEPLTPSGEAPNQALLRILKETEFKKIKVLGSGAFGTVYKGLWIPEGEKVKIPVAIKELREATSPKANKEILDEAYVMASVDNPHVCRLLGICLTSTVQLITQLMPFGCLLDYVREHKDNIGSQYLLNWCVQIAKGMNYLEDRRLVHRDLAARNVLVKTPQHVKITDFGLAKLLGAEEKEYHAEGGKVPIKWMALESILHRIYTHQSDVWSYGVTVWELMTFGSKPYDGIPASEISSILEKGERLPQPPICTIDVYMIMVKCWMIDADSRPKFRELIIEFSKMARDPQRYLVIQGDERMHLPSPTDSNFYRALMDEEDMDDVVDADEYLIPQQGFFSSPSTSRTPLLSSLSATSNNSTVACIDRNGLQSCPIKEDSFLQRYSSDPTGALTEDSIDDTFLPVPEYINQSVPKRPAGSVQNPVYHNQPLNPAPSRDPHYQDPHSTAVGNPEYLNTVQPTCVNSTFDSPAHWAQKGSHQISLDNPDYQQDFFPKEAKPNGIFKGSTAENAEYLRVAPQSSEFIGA

For `COc1cc(N2CCC(N3CCN(C)CC3)CC2)ccc1Nc1ncc(-c2ccc(C=O)c(O)c2)c(Nc2ccccc2)n1` [Compound 4], the results for the IC50 in assay [1] and in assay [2] were greater than 10 µM and greater than 1 µM, respectively.

As for `COc1cc(N2CCC(N3CCN(C)CC3)CC2)ccc1Nc1ncc(-c2cccc(C=O)c2O)c(Nc2ccccc2)n1` [Compound 5], the results for the IC50 in assay [1] and in assay [2] were greater than 10 µM and 0.398 µM, respectively.

Take `COc1cc(N(C)CCN(C)C)ccc1Nc1ncc(-c2ccc(O)c(C=O)c2)c(-c2cn(C)c3ccccc23)n1` [Compound 8]: the figures for the IC50 in assay [1] and in assay [2] were greater than 10 µM and greater than 1 µM, respectively.

`COc1cc(N2CCC(N3CCN(C)CC3)CC2)ccc1Nc1ncc(-c2cc(F)c(O)c(C=O)c2)c(Nc2ccccc2)n1` [Compound 9]: the IC50 (as a rule, the concentration at which inhibition is half-maximal) is 0.0425 µM in assay [1] and 0.00489 µM in assay [2].

With `COc1cc(N2CCC(N3CCN(C)CC3)CC2)ccc1Nc1ncc(-c2ccc(O)c(C=O)c2F)c(Nc2ccccc2)n1` [Compound 11], the IC50 in assay [1] is 0.0708 µM; in assay [2], 0.011 µM.

Regarding `COc1cc(N2CCC(N3CCN(C)CC3)CC2)ccc1Nc1ncc(-c2cc(C=O)c(O)cc2OC)c(Nc2ccccc2)n1` [Compound 13], the IC50 in assay [1] was greater than 10 µM; in assay [2], 0.094 µM.

Turning to `COc1cc(N2CCC(N3CCN(C)CC3)CC2)ccc1Nc1ncc(-c2cccc(C=O)c2)c(Nc2ccccc2)n1` [Compound 14], the IC50 is greater than 10 µM in assay [1] and 0.0634 µM in assay [2].

`CNc1nc(Nc2ccc(N3CCC(N4CCN(C)CC4)CC3)cc2OC)ncc1-c1ccc(O)c(C=O)c1` [Compound 15]: the IC50 was 9.65 µM in assay [1] and 0.0191 µM in assay [2].

As to `COc1cc(N2CCC(N3CCN(C)CC3)CC2)ccc1Nc1ncc(C#Cc2cccc(C=O)c2O)c(Nc2ccccc2)n1` [Compound 16], the IC50 in assay [2] was 0.0364 µM.

As to `COc1cc(N2CCC(N3CCN(C)CC3)CC2)ccc1Nc1ncc(C#Cc2ccc(O)c(C=O)c2)c(Nc2ccccc2)n1` [Compound 17], in assay [2], the IC50 was found to be 0.0984 µM.

Take `COc1cc(N2CCC(N3CCN(C)CC3)CC2)ccc1Nc1ncc(C#Cc2cccc(O)c2C=O)c(Nc2ccccc2)n1` [Compound 18]: the IC50 in assay [2] came out at 0.00908 µM.

`COc1cc(N2CCC(N3CCN(C)CC3)CC2)ccc1Nc1ncc(Cl)c(Oc2ccccc2-c2cccc(O)c2C=O)n1` [Compound 19]: the IC50 in assay [2] is greater than 1 µM.

Take `COc1cc(N2CCC(N3CCN(C)CC3)CC2)ccc1Nc1ncc(-c2ccc(NC(C)=O)c(C=O)c2)c(Nc2ccccc2)n1` [Compound 20]: the figures for the IC50 in assay [1] and in assay [2] were greater than 10 µM and greater than 1 µM, respectively.

Take `COc1cc(N2CCC(N3CCN(C)CC3)CC2)ccc1Nc1ncc(-c2ccc(O)c(C=O)c2)c(Oc2ccccc2)n1` [Compound 21]: in assay [2], the 50% inhibitory concentration (IC50) is 0.271 µM.

`COc1cc(N2CCC(N3CCN(C)CC3)CC2)ccc1Nc1ncc(-c2ccc(O)c(C=O)c2)c(-c2ccccc2)n1` [Compound 22]: the IC50 in assay [2] is 0.211 µM.

On to `COc1cc(N2CCC(N3CCN(C)CC3)CC2)ccc1Nc1ncc(-c2ccc(C=O)c(O)c2)c(Nc2ccccc2P(C)(C)=O)n1` [Compound 24], for which, in assay [2], the IC50 stood at 0.0108 µM.

Consider `COc1cc(N2CCC(N3CCN(C)CC3)CC2)ccc1Nc1ncc(Cl)c(Nc2cccc(-c3cccc(C=O)c3O)c2)n1` [Compound 25], for which the IC50 in assay [2] turned out to be 0.0875 µM.

With `COc1cc(N2CCC(N3CCN(C)CC3)CC2)ccc1Nc1ncc(Cl)c(Nc2cccc(-c3cccc(O)c3C=O)c2)n1` [Compound 26], the IC50 in assay [2] stood at 0.872 µM.

Consider `COc1cc(N2CCC(N3CCN(C)CC3)CC2)ccc1Nc1ncc(-c2ccc(O)c(C=O)c2)c(Nc2ccccc2P(C)(C)=O)n1` [Compound 27], for which, in assay [2], the IC50 was greater than 1 µM.

For the molecule `COc1cc(N(C)CCN(C)C)c(NC(C)=O)cc1Nc1nccc(-c2cn(Cc3cccc(O)c3C=O)c3ccccc23)n1` [Compound 28], the values for the IC50 in assay [1] and in assay [2] were greater than 10 µM and greater than 1 µM, respectively.

For `COc1cc(N(C)CCN(C)C)c(NC(C)=O)cc1Nc1nccc(-c2cn(Cc3ccc(C=O)c(O)c3)c3ccccc23)n1` [Compound 29], the IC50 in assay [1] was greater than 10 µM; in assay [2], greater than 1 µM.

Regarding `COc1cc(N(C)CCN(C)C)c(NC(C)=O)cc1Nc1nccc(-c2cn(Cc3ccc(O)c(C=O)c3)c3ccccc23)n1` [Compound 30], the IC50 in assay [2] was 0.255 µM.

With `COc1cc(N(C)CCN(C)C)ccc1Nc1ncc(Cl)c(-c2cn(Cc3cccc(C=O)c3O)c3ccccc23)n1` [Compound 31], in assay [2], the 50% inhibitory concentration (IC50) is greater than 1 µM.

For `COc1cc(N(C)CCN(C)C)ccc1Nc1ncc(Cl)c(-c2cn(Cc3cccc(O)c3C=O)c3ccccc23)n1` [Compound 32], the IC50 in assay [2] was 0.526 µM.

Turning to `COc1cc(N2CCC(N3CCN(C)CC3)CC2)ccc1Nc1ncc(Cl)c(Nc2ccc(NCc3ccc(C=O)c(O)c3)cc2)n1` [Compound 33], in assay [2], the IC50 came to 0.0765 µM.

For the molecule `COc1cc(N2CCC(N3CCN(C)CC3)CC2)ccc1Nc1ncc(Cl)c(Nc2ccccc2-c2c(OC)ccc(C=O)c2O)n1` [Compound 34], the IC50 in assay [2] is 0.278 µM.

As to `COc1cc(N2CCC(N3CCN(C)CC3)CC2)ccc1Nc1ncc(Cl)c(Nc2ccc(O)c(C=O)c2)n1` [Compound 35], the figures for the IC50 in assay [1] and in assay [2] were greater than 10 µM and 0.292 µM, respectively.

For the molecule `CC(C)c1ccc(N2CC(CS(C)(=O)=O)C2)c2cnc(Nc3ccnc(C#Cc4cccc(O)c4C=O)n3)cc12` [Compound 41], the IC50 in assay [2] turned out to be 0.0222 µM.

Turning to `CC(C)c1ccc(N2CC(CS(C)(=O)=O)C2)c2cnc(Nc3ccnc(COc4cccc(O)c4C=O)n3)cc12` [Compound 42], the IC50 in assay [1] was greater than 10 µM; in assay [2], 0.181 µM.

On to `CC(C)c1ccc(N2CC(CS(C)(=O)=O)C2)c2cnc(Nc3ccnc(N(C)Cc4cccc(O)c4C=O)n3)cc12` [Compound 43], for which the IC50 in assay [2] was greater than 1 µM.

As for `CC(C)c1ccc(N2CC(CS(C)(=O)=O)C2)c2cnc(Nc3ccnc(-n4cc(-c5cccc(O)c5C=O)cn4)n3)cc12` [Compound 44], the results for the IC50 in assay [1] and in assay [2] were 6.85 µM and 0.197 µM, respectively.

`CC(C)c1ccc(N2CC(CS(C)(=O)=O)C2)c2cnc(Nc3ccnc(N(C)CCc4cccc(O)c4C=O)n3)cc12` [Compound 45]: the IC50 was greater than 10 µM in assay [1] and greater than 1 µM in assay [2].

Turning to `CC(C)c1ccc(N2CC(CS(C)(=O)=O)C2)c2cnc(Nc3ccnc(-c4cccc(-c5cccc(O)c5C=O)c4)n3)cc12` [Compound 46], in assay [2], the IC50 was greater than 1 µM.

Regarding `CC(C)c1ccc(N2CC(CS(C)(=O)=O)C2)c2cnc(Nc3ccnc(-c4ccc(O)c(C=O)c4)n3)cc12` [Compound 47], the IC50 in assay [2] was greater than 1 µM.

In the case of `CC(C)c1ccc(N2CC(CS(C)(=O)=O)C2)c2cnc(Nc3ccnc(Oc4cccc(O)c4C=O)n3)cc12` [Compound 48], the IC50 in assay [1] is greater than 10 µM; in assay [2] it was greater than 1 µM.

As for `CC(C)c1ccc(N2CC(CS(C)(=O)=O)C2)c2cnc(Nc3ccnc(N(C)Cc4cccc(C=O)c4O)n3)cc12` [Compound 49], the IC50 in assay [1] is 2.29 µM; in assay [2], greater than 1 µM.

Consider `CC(C)c1ccc(N2CC(CS(C)(=O)=O)C2)c2cnc(Nc3ccnc(-c4cccc(C=O)c4O)n3)cc12` [Compound 50], for which the IC50 in assay [2] is greater than 1 µM.

`CN1CCN(Cc2ccc3[nH]/c(=N\C(=O)c4cc(C#N)cc(Oc5cccc(O)c5C=O)c4)n(CC(C)(C)O)c3c2)CC1` [Compound 51]: the values for the IC50 in assay [1] and in assay [2] were 1.9 µM and 0.00588 µM, respectively.

For the molecule `CN1CCN(Cc2ccc3[nH]/c(=N\C(=O)c4cccc(Oc5cccc(O)c5C=O)c4)n(CC(C)(C)O)c3c2)CC1` [Compound 52], the IC50 in assay [1] turned out to be 4.86 µM; in assay [2] it was 0.00842 µM.

Take `CN1CCN(Cc2ccc3[nH]/c(=N\C(=O)c4cc(F)cc(Oc5cccc(O)c5C=O)c4)n(CC(C)(C)O)c3c2)CC1` [Compound 53]: the IC50 was greater than 8.18 µM in assay [1] and 0.00597 µM in assay [2].

For `CN1CCN(Cc2ccc3[nH]/c(=N\C(=O)c4cncc(Oc5cccc(O)c5C=O)c4)n(CC(C)(C)O)c3c2)CC1` [Compound 55], the IC50 amounted to 1.43 µM in assay [1] and 0.00533 µM in assay [2].

As for `CN1CCN(c2ccc3[nH]/c(=N\C(=O)c4ccnc(Oc5cccc(O)c5C=O)c4)n(CC(C)(C)O)c3c2)CC1` [Compound 56], the IC50 in assay [1] came out at 0.763 µM; in assay [2], 0.278 µM.

For `CN1CCN(Cc2ccc3[nH]/c(=N\C(=O)c4ccnc(C#Cc5c(F)ccc(O)c5C=O)c4)n(CC(C)(C)O)c3c2)CC1` [Compound 57], the figures for the IC50 in assay [1] and in assay [2] were 1.77 µM and 0.00603 µM, respectively.

For the molecule `CN1CCN(Cc2ccc3[nH]/c(=N\C(=O)c4cc(C=O)cc(Oc5cccc(O)c5C=O)c4)n(CC(C)(C)O)c3c2)CC1` [Compound 58], the values for the IC50 in assay [1] and in assay [2] were greater than 10 µM and 0.0103 µM, respectively.

Take `Cc1ccc(C(=O)/N=c2\[nH]c3ccc(CN4CCN(C)CC4)cc3n2CC(C)(C)O)cc1Oc1cccc(O)c1C=O` [Compound 59]: the IC50 came to 1.13 µM in assay [1] and 0.00932 µM in assay [2].

With `CN1CCN(Cc2ccc3[nH]/c(=N\C(=O)c4cc(F)nc(Oc5cccc(O)c5C=O)c4)n(CC(C)(C)O)c3c2)CC1` [Compound 60], the values for the IC50 in assay [1] and in assay [2] were 2.85 µM and 0.00829 µM, respectively.

For the molecule `Cc1cc(Oc2cccc(O)c2C=O)cc(C(=O)/N=c2\[nH]c3ccc(CN4CCN(C)CC4)cc3n2CC(C)(C)O)c1` [Compound 61], the values for the IC50 in assay [1] and in assay [2] were greater than 10 µM and 0.0179 µM, respectively.

As for `CN1CCN(Cc2ccc3[nH]/c(=N\C(=O)c4ccnc(C#Cc5cccc(O)c5C=O)c4)n(CC(C)(C)O)c3c2)CC1` [Compound 62], the half-inhibitory concentration (IC50) in assay [1] came to 3.36 µM; in assay [2], 0.00705 µM.

In the case of `CN1CCN(Cc2ccc3[nH]/c(=N\C(=O)c4ccnc(N(C)Cc5cccc(O)c5C=O)c4)n(CC(C)(C)O)c3c2)CC1` [Compound 96], in assay [2], the half-inhibitory concentration (IC50) was determined as 0.508 µM.

Turning to `CC(C)(O)Cn1/c(=N/C(=O)c2ccnc(C#Cc3cccc(C=O)c3O)c2)[nH]c2ccccc21` [Compound 137], in assay [2], the IC50 is greater than 1 µM.
